{"source": "patent US20090203644A1", "about": "“Compositions for treating and/or preventing diseases characterized by the presence of metal ions” (GrenPharma LLC, priority 2004, published 2009)", "key": {"human subject": {"test_system": "human subject", "conditions": "in vivo, po"}, "A-beta peptide fragment": {"molecular_target": "A-beta peptide fragment (Homo sapiens, UniProt P05067)", "sequence (P05067 672-713)": "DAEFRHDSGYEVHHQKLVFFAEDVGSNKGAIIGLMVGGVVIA", "test": "CD helix-coil reversal and pretreatment experiments (Example 11)", "type": "biochemical"}, "A-beta1-42 peptide [1]": {"molecular_target": "T1, A-beta1-42 peptide (Homo sapiens, UniProt P05067)", "T1 sequence (P05067 672-713)": "as above", "type": "biochemical"}, "A-beta peptide [2]": {"molecular_target": "A-beta peptide (Homo sapiens, UniProt P05067)", "sequence (P05067 672-713)": "as above", "type": "biochemical"}, "A-beta peptide [3]": {"test_system": "A-beta peptide", "design": "species or system human"}, "A-beta antigen": {"test_system": "A-beta antigen", "design": "species or system human"}, "[4]": {"conditions": "in vivo; cited from earlier work"}, "[5]": {"molecular_target": "peptide 1 (A-beta1-42 peptide) (Homo sapiens, UniProt P05067)", "sequence (P05067 672-713)": "as above", "type": "biochemical"}, "A-beta1-42 peptide [6]": {"molecular_target": "T1, A-beta1-42 peptide", "type": "biochemical", "remark": "listed apart in the source"}, "[7]": {"conditions": "20 mM in 25 mM or 100 mM MOPS, pH 7.1"}, "[8]": {"test": "Permeation of Transwell membranes alone (wells without cells)"}}, "note": "Entries after “also recorded” stand apart in the source; their conditions may differ. Where a name gives a salt, the structure may show the parent alone. Read-outs that look alike come from different tables or passages of the source."}
{"smiles": "C[Si](C)(Cl)CC[Si](C)(C)Cl", "values": [{"measurement": "effect on development of neurofibrillary tangles and senile plaques", "setting": "human subject", "result": "interferes with further development of neurofibrillary tangles and senile plaques"}]}
{"smiles": "C[Si](Cl)(Cl)CCC#N", "note": "[CEMS, 2-cyanoethylmethyldichlorosilane]", "values": [{"measurement": "protection against loss of helicity upon addition of Al(ClO4)3", "setting": "A-beta peptide fragment", "result": "protection against loss of helicity"}, {"measurement": "recovery of helical structure (CD)", "setting": "A-beta peptide fragment", "result": "recovery of helical structure"}, {"measurement": "recovery of helicity (CD)", "setting": "A-beta peptide fragment", "result": "recovery of helicity"}, {"measurement": "recovery of helicity in Al-denatured peptide / reversal of aluminum-induced denaturation (CD)", "setting": "A-beta peptide fragment", "result": "appeared to reverse aluminum-induced denaturation; also recorded: recovery of helicity"}, {"measurement": "amount of Al added until which helicity was preserved", "setting": "A-beta1-42 peptide [1]", "result": "about 1 equivalent"}, {"measurement": "protection of helical structure of A-beta1-42 against amyloid formation by aluminum (III)", "setting": "A-beta1-42 peptide [1]", "result": "protection of the helical structure"}, {"measurement": "protection from and/or reversal of metal-induced aggregation (DLS)", "setting": "A-beta peptide [2]", "result": "protection against Al^3+-induced aggregation"}, {"measurement": "total extracted", "setting": "A-beta peptide [3]", "result": 4.5, "unit": "fmol"}, {"measurement": "total extracted", "setting": "A-beta antigen", "result": 1.4, "unit": "fmol"}, {"measurement": "Permeation Coefficient (cm/sec) Mean ± SD, where applicable", "setting": "Caco-2 cells; human, Caco-2", "result": "4.6e-06", "unit": "cm/s"}, {"measurement": "Total Permeation Coefficient (cm/sec) Mean ± SD, where applicable, Caco-2", "setting": "Caco-2 cells; human, Caco-2", "result": "4.6e-06", "unit": "cm/s"}, {"measurement": "Total Permeation Coefficient (cm/sec) Mean ± SD, where applicable, MDCK", "setting": "MDCK cells; dog", "result": "1.3e-06", "unit": "cm/s"}]}
{"smiles": "O=C(O)CN(CCN(CC(=O)O)CC(=O)O)CC(=O)O", "note": "[EDTA, ethylenediaminetetraacetic acid]", "values": [{"measurement": "time typical doses last in the body", "setting": "[4]", "result": "about 1 hour"}]}
{"smiles": "Cl", "note": "[HCl, hydrochloric acid, reference compound]", "values": [{"measurement": "reversal of / protection from metal-induced loss of helix in TFE solutions (CD)", "setting": "A-beta peptide fragment; polyvalent metal ions as perchlorate salts", "result": "can reverse the loss of helix"}, {"measurement": "Total Extracted (fmol)", "setting": "A-beta antigen", "result": "no detectable antigen"}, {"measurement": "reversing the metal-induced helix-coil transition", "setting": "[5]; acid, product of hydrolysis of chlorosilanes", "result": "itself effective for reversing the helix-coil transition"}]}
{"smiles": "[Zn]", "note": "[Zinc]", "values": [{"measurement": "effect on the A-beta1-42 CD spectrum (disruption of the alpha helix)", "setting": "A-beta1-42 peptide [6]", "result": "minor or no effects"}]}
{"smiles": "C[Si](O)(O)CCCC#N", "note": "[compound 3f, (dihydroxy)methyl(3-cyanopropyl)silane]", "values": [{"measurement": "recovery of the CD spectrum on titration of iron-complexed peptide 1", "setting": "[5]", "result": "dosage effect is evident, but non-linear"}, {"measurement": "stability, solubility and effectiveness in reversing and/or preventing the effect of metal ion on helix formation", "setting": "[5]", "result": "efficient combination of stability, solubility, and effectiveness"}, {"measurement": "titration point showing the greatest degree of recovery", "setting": "[5]", "result": 0.25, "unit": "eq."}]}
{"smiles": "C[Si](Cl)(Cl)CC[Si](C)(Cl)Cl", "note": "[compound 1042, 1,2-(methyldichlorosilyl)ethane]", "values": [{"measurement": "recovery of helicity in Al-denatured peptide / reversal of aluminum-induced denaturation (CD)", "setting": "A-beta peptide fragment; TFE solution, Al(ClO4)3", "result": "recovery of helicity"}, {"measurement": "amyloid extracted compared with MOPS / buffer controls", "setting": "A-beta peptide [3]", "result": "more amyloid"}, {"measurement": "share of total antigen released to the extract", "setting": "A-beta peptide [3]", "result": "approximately 6%"}, {"measurement": "total extracted", "setting": "A-beta peptide [3]", "result": 17.2, "unit": "fmol"}, {"measurement": "share of total antigen released to the extract", "setting": "A-beta antigen", "result": "approximately 12%"}, {"measurement": "total extracted", "setting": "A-beta antigen", "result": 14.0, "unit": "fmol"}, {"measurement": "Cell Permeation Coefficient (cm/sec) Caco-2", "setting": "Caco-2 cells; Caco-2", "result": "6.7e-05", "unit": "cm/s"}, {"measurement": "Permeation Coefficient (cm/sec) Mean ± SD, where applicable", "setting": "Caco-2 cells; Caco-2", "result": "2.5e-05", "unit": "cm/s"}, {"measurement": "Total Permeation Coefficient (cm/sec) Mean ± SD, where applicable, Caco-2", "setting": "Caco-2 cells; Caco-2", "result": "1.9 ± 1.1 × 10^−5 cm/sec"}, {"measurement": "cell permeation coefficient compared with mannitol, Caco-2", "setting": "Caco-2 cells; Caco-2", "result": "at least ten times greater"}, {"measurement": "crossing of the epithelial barrier in the Caco-2 model", "setting": "Caco-2 cells; Caco-2", "result": "cross the epithelial barrier relatively efficiently"}, {"measurement": "permeation across Caco-2 cells compared with mannitol", "setting": "Caco-2 cells; Caco-2", "result": "at least ten times greater"}, {"measurement": "Cell Permeation Coefficient (cm/sec) MDCK", "setting": "MDCK cells", "result": "5.6e-05", "unit": "cm/s"}, {"measurement": "Total Permeation Coefficient (cm/sec) Mean ± SD, where applicable, MDCK", "setting": "MDCK cells", "result": "1.8 ± 1.2 × 10^−5 cm/sec"}, {"measurement": "cell permeation coefficient compared with mannitol, MDCK", "setting": "MDCK cells", "result": "at least ten times greater"}, {"measurement": "crossing of the epithelial barrier in the MDCK model", "setting": "MDCK cells", "result": "cross the epithelial barrier relatively efficiently"}, {"measurement": "permeation across MDCK cells compared with mannitol", "setting": "MDCK cells", "result": "at least ten times greater"}, {"measurement": "time for which solutions were free of precipitate or colloidal suspensions / stable after preparation", "setting": "[7]", "result": "at least 24 hours"}]}
{"smiles": "[Fe+2]", "note": "[iron (II)]", "values": [{"measurement": "effect on the A-beta1-42 CD spectrum (disruption of the alpha helix)", "setting": "A-beta1-42 peptide [6]", "result": "minor or no effects"}]}
{"smiles": "OC[C@@H](O)[C@@H](O)[C@H](O)[C@H](O)CO", "note": "[mannitol, reference compound]", "values": [{"measurement": "Transwell Permeation Coeff. Mean ± SD, where applicable", "setting": "[8]", "result": "3.6 ± 0.3 × 10^−5 cm/sec"}, {"measurement": "Cell Permeation Coefficient (cm/sec) Caco-2", "setting": "Caco-2 cells; human, Caco-2, 60 min", "result": "2.6e-06", "unit": "cm/s"}, {"measurement": "Permeation Coefficient (cm/sec) Mean ± SD, where applicable", "setting": "Caco-2 cells; human, Caco-2, 60 min, 20 mM", "result": "1.9 ± 1.9 × 10^−6 cm/sec"}, {"measurement": "Total Permeation Coefficient (cm/sec) Mean ± SD, where applicable, Caco-2", "setting": "Caco-2 cells; human, Caco-2, 60 min, 20 mM", "result": "1.9 ± 1.9 × 10^−6 cm/sec"}, {"measurement": "Cell Permeation Coefficient (cm/sec) MDCK", "setting": "MDCK cells; dog, 60 min", "result": "1.4e-06", "unit": "cm/s"}, {"measurement": "Total Permeation Coefficient (cm/sec) Mean ± SD, where applicable, MDCK", "setting": "MDCK cells; dog, 60 min, 20 mM", "result": "1.3 ± 1.0 × 10^−6 cm/sec"}]}
